Values belong to the compound of their own block, whether it stands above or below them.
Columns and labels:
[1] = test system: lung cancer cell line A549; assay: MTT assay, cytotoxicity on A549; format: cell-based, human; settings: for GI50: Homo sapiens, A549, MTT, 72 h, mean of two independent determinations; for TI (LO2/A549): therapeutic index, GI50 LO2 / GI50 A549
Experimental: (§1) MTT assay was applied to verify the rationality of the molecular combination strategy. The cytotoxicity of the compounds was evaluated on lung cancer cell line A549, colon cancer cell line HCT-116, breast cancer cell line 4T1 and normal hepatocyte cell line LO2. Paclitaxel was used as a positive drug. […] The therapeutic index (TI) for LO2/HCT-116, LO2/A549 and LO2/4T1 of active compounds 4a, 4d, 13a, 17a, 17c and paclitaxel are shown in Table 2.
(§2) Cells were inoculated in 96-well plates (cell density 2 × 10^4 cells/well) followed by incubation for 24 h at 37 °C. Paclitaxel and target compounds were added to the corresponding well. Subsequently, the cultures were incubated for 72 h. After the MTT solution (50 µL, 2 mg/mL) was added to cultures, the plates were incubated for an additional 4 h. Purple colored formazan crystals were dissolved in 200 µL DMSO, and the absorbance was recorded at 570 nm using Synergy HT, Bio-Tek (Winooski, VT, USA).

[2] = test system: breast cancer cell line 4T1; assay: MTT assay, cytotoxicity on 4T1; format: cell-based, mouse; settings: for inhibition % at fixed concentration, 4T1 (printed in GI50 column): @100 nM; for GI50: Mus musculus, MTT, 72 h, mean of two independent determinations; for TI (LO2/4T1): therapeutic index, GI50 LO2 / GI50 4T1
Experimental: as §1, §2

[3] = test system: colon cancer cell line HCT-116; assay: MTT assay, cytotoxicity on HCT-116; format: cell-based, human; settings: for GI50: Homo sapiens, HCT-116, MTT, 72 h, mean of two independent determinations; for TI (LO2/HCT-116): therapeutic index, GI50 LO2 / GI50 HCT-116
Experimental: as §1, §2

[4] = Liposome loading with copper ion gradients (encapsulation efficiency by HPLC); format: physicochemical; settings: copper ion gradient
Excerpt: Vyxeos® is a liposomal formulation of a fixed molar ratio (1:5) combination of the antineoplastic drugs daunorubicin (DN) and cytarabine (Cyt). Daunorubicin is subsequently actively encapsulated with high efficiency through complexation with intra-liposomal copper. The copper gluconate buffer forms a complex with daunorubicin at a ratio of 1:1 to 1:2 [25]. Referring to Vyxeos®, copper ion was selected as a complexed metal ion in the inner phase. […] Therefore, compound 4d was selected to investigate the effect of the anions on the loading efficiency. Among them, only the neutral gluconate copper was a suitable inner phase to facilitate the encapsulation of compound 4d (Table 3).
The reason for the stability of the neutral formulations was potentially due to the fact that PBA was effectively […] and interacted with copper more tightly in the neutral condition compared with the acidic condition. Thus, the neutral Cu-gluconate was selected as the inner phase. The concentration of copper ions was also investigated, showing that the higher the copper concentration, the higher the EE. Considering the safety of copper ions, 300 mM was chosen. […] The EE of compound 4d active loading liposome was more than 95% with copper ion gradient. Furthermore, we also evaluated the ATP and saccharides as remote gradients with the optimal formulation of copper ion gradients.
Blank liposomes were prepared for membrane hydration. HSPC, chol and DSPE-PEG2000 were dissolved using chloroform at a mass ratio of 3:1:0.02 and then spin-evaporated at 37 °C. The obtained film was then hydrated with 300 mM Cu-Glu (pH 7.4) at 65 °C for 30 min. The multi-layer vesicles were subsequently put into an extruder and passed through polycarbonate membranes with pore sizes of 400 nm, 200 nm and 100 nm 12 times at 65 °C containing 20 mM HEPES, 15 mM EDTA and 300 mM sucrose for removing the un-encapsulated Cu^2+, and then EDTA was removed with 20 mM HEPES and 300 mM sucrose buffer (pH 7.4, adjusted with triethylamine). Compound 4d was dissolved in DMSO and slowly added into the liposome at 65 °C for 30 min and then quenched in an ice bath for 5 min (the drug to lipid ratio was 1:10). The encapsulation efficiency and drug loading efficiency of compound 4d were determined using HPLC. The morphologies of liposomes were characterized using a transition electron microscope (TEM, Hitachi HT7700, Tokyo, Japan); then, their size, PDI and Zeta potential were measured using a Zetasizer Nano ZS90 (Malvern, UK).

[5] = test system: normal hepatocyte cell line LO2; assay: MTT assay, cytotoxicity on normal cell LO2; format: cell-based; settings: for GI50: Hepatocyte, MTT, 72 h, mean of two independent determinations; for inhibition % at fixed concentration, LO2 (printed in GI50 column): @2 μM
Experimental: as §1, §2

[6] = Liposome loading with calcium acetate gradients; format: physicochemical; settings: sediment precipitated after loading
Excerpt: Since boronic acid RB(OH)2 is not only a weak acid, but also a structure that can complex with copper ions, ATP and saccharides, we investigated whether different inner phases could be employed to encapsulate compounds (4a, 4d, 13a, 17a, 17c) with good therapeutic index.

- loading into liposomes, copper ion as complexed metal ion in the inner phase [4]: failed in loading into the liposomes
- encapsulation into liposomes by calcium acetate gradients [6]: not feasible
Structure (SMILES): CC(=O)OC1C(=O)C2(C)C(O)CC3OCC3(OC(C)=O)C2C(OC(=O)c2ccccc2)C2(O)CC(OC(=O)C(OC(=O)CCC(=O)OCc3ccc(B(O)O)cc3)C(NC(=O)c3ccccc3)c3ccccc3)C(C)=C1C2(C)C (centres unmarked) [Compound 4a, 2’-O-[4-((4-boronobenzyl)oxy)-4-oxobutyryl]taxol]
- GI50 [1]: 68.5 nM
- TI (LO2/A549) [1]: 27.4
- inhibition % at fixed concentration, 4T1 (printed in GI50 column) [2]: 20.85%@100 nM
- GI50 [3]: 73.7 nM
- TI (LO2/HCT-116) [3]: 25.4
- GI50 [5]: 1880 nM

Structure (SMILES): CC(=O)OC12COC1CC(O)C1(C)C(=O)C(O)C3=C(C)C(OC(=O)C(OC(=O)CCC(=O)OCc4ccc(B(O)O)cc4)C(NC(=O)OC(C)(C)C)c4ccccc4)CC(O)(C(OC(=O)c4ccccc4)C21)C3(C)C (centres unmarked) [Compound 4b, 2’-O-[4-((4-boronobenzyl)oxy)-4-oxobutyryl]docetaxel]
- GI50 [2]: 54.7 nM

Structure (SMILES): CC(=O)OC1C(=O)C2(C)C(O)CC3OCC3(OC(C)=O)C2C(OC(=O)c2ccccc2)C2(O)CC(OC(=O)C(OC(=O)CCCC(=O)OCc3ccc(B(O)O)cc3)C(NC(=O)c3ccccc3)c3ccccc3)C(C)=C1C2(C)C (centres unmarked) [Compound 4c, 2’-O-[5-((4-boronobenzyl)oxy)-5-oxopentanoyl]taxol]
- GI50 [2]: > 100 nM

Structure (SMILES): CC(=O)OC1C(=O)C2(C)C(O)CC3OCC3(OC(C)=O)C2C(OC(=O)c2ccccc2)C2(O)CC(OC(=O)C(OC(=O)CCSSCCC(=O)OCc3ccc(B(O)O)cc3)C(NC(=O)c3ccccc3)c3ccccc3)C(C)=C1C2(C)C (centres unmarked) [Compound 4e, 2’-O-[3-((3-((4-boronobenzyl)oxy)-3-oxopropyl)disulfaneyl)propionyl]taxol]
- GI50 [2]: > 100 nM

Structure (SMILES): CC(=O)OC1C(=O)C2(C)C(O)CC3OCC3(OC(C)=O)C2C(OC(=O)c2ccccc2)C2(O)CC(OC(=O)C(OC(=O)c3ccc(B(O)O)cc3)C(NC(=O)c3ccccc3)c3ccccc3)C(C)=C1C2(C)C (centres unmarked) [Compound 6a, 2’-O-[4-boronobenzoyl]taxol]
- GI50 [1]: > 100 nM
- GI50 [2]: > 100 nM
- GI50 [3]: > 100 nM

Structure (SMILES): CC(=O)OC12COC1CC(O)C1(C)C(=O)C(O)C3=C(C)C(OC(=O)C(OC(=O)c4ccc(B(O)O)cc4)C(NC(=O)OC(C)(C)C)c4ccccc4)CC(O)(C(OC(=O)c4ccccc4)C21)C3(C)C (centres unmarked) [Compound 6b, 2’-O-[4-boronobenzoyl]docetaxel]
- GI50 [2]: > 100 nM

Structure (SMILES): CC(=O)OC1C(=O)C2(C)C(O)CC3OCC3(OC(C)=O)C2C(OC(=O)c2ccccc2)C2(O)CC(OC(=O)C(OC(=O)OCCCCCB(O)O)C(NC(=O)c3ccccc3)c3ccccc3)C(C)=C1C2(C)C (centres unmarked) [Compound 10a, 2’-O-[5-boronopentyl carbonate]taxol]
- GI50 [1]: > 100 nM
- GI50 [2]: > 100 nM
- GI50 [3]: > 100 nM
- inhibition % at fixed concentration, LO2 (printed in GI50 column) [5]: 32.81%@2 μM

Structure (SMILES): CC(=O)OC1C(=O)C2(C)C(O)CC3OCC3(OC(C)=O)C2C(OC(=O)c2ccccc2)C2(O)CC(OC(=O)C(OC(=O)OCCCCCCB(O)O)C(NC(=O)c3ccccc3)c3ccccc3)C(C)=C1C2(C)C (centres unmarked) [Compound 10b, 2’-O-[6-boronohexyl carbonate]taxol]
- GI50 [2]: > 100 nM
- GI50 [3]: > 100 nM
- GI50 [5]: 745 nM

Structure (SMILES): CC(=O)OC12COC1CC(O)C1(C)C(=O)C(O)C3=C(C)C(OC(=O)C(OC(=O)OCCCCCCB(O)O)C(NC(=O)OC(C)(C)C)c4ccccc4)CC(O)(C(OC(=O)c4ccccc4)C21)C3(C)C (centres unmarked) [Compound 10c, 2’-O-[6-boronohexyl carbonate] docetaxel]
- inhibition % at fixed concentration, 4T1 (printed in GI50 column) [2]: 35.97%@100 nM
- inhibition % at fixed concentration, HCT-116 (printed in GI50 column) ([3]; @100 nM): 55.66%@100 nM
- GI50 [5]: 273 nM

Structure (SMILES): CC(=O)OC1C(=O)C2(C)C(O)CC3OCC3(OC(C)=O)C2C(OC(=O)c2ccccc2)C2(O)CC(OC(=O)C(OC(=O)OCc3ccc(B(O)O)cc3)C(NC(=O)c3ccccc3)c3ccccc3)C(C)=C1C2(C)C (centres unmarked) [Compound 13a, 2’-O-[4-boronobenzyl carbonate]taxol]
- GI50 [1]: 22.5 nM
- TI (LO2/A549) [1]: 43.3
- GI50 [2]: 92.9 nM
- TI (LO2/4T1) [2]: 10.5
- GI50 [3]: 8.73 nM
- TI (LO2/HCT-116) [3]: 111.3
- loading into liposomes, copper ion as complexed metal ion in the inner phase [4]: failed in loading into the liposomes
- GI50 [5]: 972 nM
- encapsulation into liposomes by calcium acetate gradients [6]: not feasible

Structure (SMILES): CC(=O)OC12COC1CC(O)C1(C)C(=O)C(O)C3=C(C)C(OC(=O)C(OC(=O)OCc4ccc(B(O)O)cc4)C(NC(=O)OC(C)(C)C)c4ccccc4)CC(O)(C(OC(=O)c4ccccc4)C21)C3(C)C (centres unmarked) [Compound 13b, 2’-O-[4-boronobenzyl carbonate] docetaxel]
- GI50 [2]: 33.1 nM

Structure (SMILES): CC(=O)OC1C(=O)C2(C)C(O)CC3OCC3(OC(C)=O)C2C(OC(=O)c2ccccc2)C2(O)CC(OC(=O)C(OC(=O)CCB(O)O)C(NC(=O)c3ccccc3)c3ccccc3)C(C)=C1C2(C)C (centres unmarked) [Compound 17a, 2’-O-[3-boronopropanoyl]taxol]
- GI50 [1]: 21.8 nM
- TI (LO2/A549) [1]: 32.7
- GI50 [2]: 68.1 nM
- TI (LO2/4T1) [2]: 10.5
- GI50 [3]: 7.98 nM
- TI (LO2/HCT-116) [3]: 89.5
- loading into liposomes, copper ion as complexed metal ion in the inner phase [4]: failed in loading into the liposomes
- GI50 [5]: 715 nM
- encapsulation into liposomes by calcium acetate gradients [6]: not feasible

Structure (SMILES): CC(=O)OC1C(=O)C2(C)C(O)CC3OCC3(OC(C)=O)C2C(OC(=O)c2ccccc2)C2(O)CC(OC(=O)C(OC(=O)CCCB(O)O)C(NC(=O)c3ccccc3)c3ccccc3)C(C)=C1C2(C)C (centres unmarked) [Compound 17b, 2’-O-[4-boronobutanoyl]taxol]
- GI50 [1]: 69.2 nM
- inhibition % at fixed concentration, 4T1 (printed in GI50 column) [2]: 17.89%@100 nM
- GI50 [3]: 38.3 nM
- inhibition % at fixed concentration, LO2 (printed in GI50 column) [5]: 38.06%@2 μM

Structure (SMILES): CC(=O)OC1C(=O)C2(C)C(O)CC3OCC3(OC(C)=O)C2C(OC(=O)c2ccccc2)C2(O)CC(OC(=O)C(OC(=O)CCCCCB(O)O)C(NC(=O)c3ccccc3)c3ccccc3)C(C)=C1C2(C)C (centres unmarked) [Compound 17d, 2’-O-[6-boronohexanoyl]taxol]
- GI50 [1]: > 100 nM
- GI50 [2]: > 100 nM
- GI50 [3]: > 100 nM

Structure (SMILES): CC(=O)OC1C(=O)C2(C)C(O)CC3OCC3(OC(C)=O)C2C(OC(=O)c2ccccc2)C2(O)CC(OC(=O)C(OC(=O)CCCCCCB(O)O)C(NC(=O)c3ccccc3)c3ccccc3)C(C)=C1C2(C)C (centres unmarked) [Compound 17e, 2’-O-[7-boronoheptanoyl]taxol]
- GI50 [1]: > 100 nM
- GI50 [2]: > 100 nM
- GI50 [3]: > 100 nM

Structure (SMILES): CC(=O)OC12COC1CC(O)C1(C)C(=O)C(O)C3=C(C)C(OC(=O)C(OC(=O)CCCB(O)O)C(NC(=O)OC(C)(C)C)c4ccccc4)CC(O)(C(OC(=O)c4ccccc4)C21)C3(C)C (centres unmarked) [Compound 17f, 2’-O-[4-boronobutanoyl]docetaxel]
- GI50 [2]: 14.5 nM

Structure (SMILES): CC(=O)OC12COC1CC(O)C1(C)C(=O)C(O)C3=C(C)C(OC(=O)C(OC(=O)CCCCCB(O)O)C(NC(=O)OC(C)(C)C)c4ccccc4)CC(O)(C(OC(=O)c4ccccc4)C21)C3(C)C (centres unmarked) [Compound 17g, 2’-O-[6-boronohexanoyl]docetaxel]
- inhibition % at fixed concentration, 4T1 (printed in GI50 column) [2]: 35.83%@100 nM
